Values of other authors, collected in patent US6419954B1, “Tablets and methods for modified release of hydrophilic and other active agents” (Yamanouchi Pharmaceutical Co., Ltd., priority 2000, dated 2002).
Where a name gives a salt, the structure may show the parent alone. Read-outs that look alike come from different tables or passages of the source.

Settings: at 25° C.

water solubility (hemihydrate): about 766 mg/ml
water solubility (listed as SNI-2011, hemihydrate): about 1,400 mg/ml
SMILES: CC1OC2(CS1)CN1CCC2CC1 (racemic) [Cevimeline HCl, (+/−)-cis-2-methylspiro [1,3-oxathiolane-5,3′-quinuclidine]hydrochloride, hemihydrate]
